Test results from ChEMBL document CHEMBL1201862, “PubChem BioAssay data set” (2004).
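Dose response: 5 concentrations. Exposure: 48 h. Format: 96-well plates. Endpoint: linear interpolation; highest concentration if not reached. GI50: concentration for 50% inhibition of growth.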 Activity calls are given as the source filed them. Cut-off read from the data, not from the text of the source: active = GI50 up to about 1.1 µM and inactive = higher.

Assays:
Assay in all cases: NCI tumour cell line growth inhibition, 48 h
HT-29 = test system: HT-29
HCC 2998 = test system: HCC 2998
OVCAR-3 = test system: OVCAR-3
SK-MEL-2 = test system: SK-MEL-2
HCT-15 = test system: HCT-15
SN12C = test system: SN12C
HOP-62 = test system: HOP-62
LOX IMVI = test system: LOX IMVI
EKVX = test system: EKVX
M19-MEL = test system: M19-MEL
DMS-114 = test system: DMS-114
K562 = test system: K562
ACHN = test system: ACHN
CAKI-1 = test system: CAKI-1
NCI/ADR-RES = test system: NCI/ADR-RES
MCF7 = test system: MCF7
MDA-N = test system: MDA-N
PC-3 = test system: PC-3
Hs-578T = test system: Hs-578T
MDA-MB-231 = test system: MDA-MB-231

Measured: GI50

CC1CC2=Nc3ccccc3NC(c3ccccc3)C2=C(O)O1 (configuration not stated)
inactive: HT-29 > 100 µM | HCC 2998 > 100 µM | OVCAR-3 > 100 µM | SK-MEL-2 > 100 µM | SN12C > 100 µM | HOP-62 > 100 µM | LOX IMVI > 100 µM | EKVX > 100 µM | M19-MEL > 100 µM | DMS-114 > 100 µM | K562 > 100 µM | ACHN > 100 µM
> 100 µM: HCT-15

CCOC(=O)C1=C(Nc2ccccc2)OC/C1=N\NC(=O)Cc1ccccc1
inactive: HT-29 > 50 µM | HCC 2998 > 50 µM | CAKI-1 > 50 µM | OVCAR-3 > 50 µM | SK-MEL-2 > 50 µM | SN12C > 50 µM | HOP-62 > 50 µM | LOX IMVI > 50 µM | EKVX > 50 µM | M19-MEL > 50 µM | DMS-114 > 50 µM | K562 > 50 µM

CN(c1nc(=[N+](C)C)ss1)C1CCCCC1
> 100 µM: HCT-15
inactive: HT-29 > 100 µM | HCC 2998 > 100 µM | CAKI-1 > 100 µM | SK-MEL-2 > 100 µM | SN12C > 100 µM | HOP-62 > 100 µM | LOX IMVI > 100 µM | EKVX > 100 µM | M19-MEL > 100 µM | DMS-114 32.1 µM | K562 > 100 µM | ACHN > 100 µM

CSc1nc(NC(=O)O)c(N(C(C)=O)C(=O)O)c(=O)n1C
inactive: HT-29 > 100 µM | HCC 2998 > 100 µM | CAKI-1 > 100 µM | OVCAR-3 > 100 µM | SK-MEL-2 > 100 µM | SN12C > 100 µM | LOX IMVI > 100 µM | EKVX > 100 µM | M19-MEL > 100 µM | DMS-114 > 100 µM | K562 > 100 µM | ACHN > 100 µM
> 100 µM: HCT-15

CN(CCO)c1nc(=O)c2c([nH]1)CCC2
inactive: HT-29 > 100 µM | HCC 2998 > 100 µM | CAKI-1 > 100 µM | OVCAR-3 > 100 µM | SK-MEL-2 > 100 µM | SN12C > 100 µM | HOP-62 > 100 µM | LOX IMVI > 100 µM | EKVX > 100 µM | M19-MEL > 100 µM | DMS-114 > 100 µM | K562 > 100 µM | ACHN > 100 µM
> 100 µM: HCT-15

Cc1cc(C(C)(C)C)cc(Cc2cc(C(C)(C)C)cc(Cc3cc(C(C)(C)C)cc(C)c3O)c2O)c1O
inactive: HT-29 11.7 µM | CAKI-1 12.6 µM | OVCAR-3 4.75 µM | SK-MEL-2 10.4 µM | SN12C 7.28 µM | HOP-62 15.4 µM | LOX IMVI 7.73 µM | EKVX 10.8 µM | M19-MEL 3.77 µM | DMS-114 4.21 µM | K562 4.54 µM
11.9 µM: HCT-15

CCCCN(CCCC)C(=O)C(=O)C(C#N)c1ccc(C)cc1 (configuration not stated)
> 100 µM: HCT-15
inactive: HT-29 > 100 µM | HCC 2998 > 100 µM | CAKI-1 > 100 µM | OVCAR-3 > 100 µM | SK-MEL-2 > 100 µM | SN12C > 100 µM | HOP-62 > 100 µM | LOX IMVI > 100 µM | EKVX > 100 µM | M19-MEL > 100 µM | DMS-114 > 100 µM | K562 > 100 µM | ACHN > 100 µM

CC1(C)c2ccccc2C(C)(C)C(C(=O)Nc2ccccc2)C1C(=O)O (configuration not stated)
inactive: HT-29 > 100 µM | HCC 2998 > 100 µM | OVCAR-3 > 100 µM | SK-MEL-2 > 100 µM | SN12C > 100 µM | HOP-62 > 100 µM | LOX IMVI > 100 µM | EKVX > 100 µM | M19-MEL > 100 µM | DMS-114 91.6 µM | K562 > 100 µM | ACHN > 100 µM

CCC1=CCN(c2cc(C)ccn2)OC1c1ccc(OC)cc1 (configuration not stated)
inactive: HT-29 21.6 µM | HCC 2998 40.6 µM | CAKI-1 34.4 µM | OVCAR-3 42.7 µM | SK-MEL-2 16.9 µM | SN12C 26 µM | HOP-62 44.3 µM | LOX IMVI 30.1 µM | EKVX 40.6 µM | M19-MEL 31.5 µM | DMS-114 27.9 µM | K562 34 µM | ACHN 33.5 µM
27.3 µM: HCT-15

C=CCNC1=NC(=O)C(CC(=O)Nc2cccc(Cl)c2)S1 (configuration not stated)
inactive: HT-29 > 100 µM | HCC 2998 > 100 µM | CAKI-1 > 100 µM | OVCAR-3 > 100 µM | SK-MEL-2 > 100 µM | SN12C > 100 µM | HOP-62 > 100 µM | LOX IMVI > 100 µM | EKVX > 100 µM | M19-MEL > 100 µM | DMS-114 > 100 µM | K562 > 100 µM | ACHN > 100 µM
> 100 µM: HCT-15

COc1ccc2nc3cc(Cl)ccc3c(Sc3ccc([N+](=O)[O-])cc3C)c2c1
> 100 µM: HCT-15
inactive: HCC 2998 > 100 µM | CAKI-1 > 100 µM | OVCAR-3 > 100 µM | SK-MEL-2 > 100 µM | SN12C 74.3 µM | HOP-62 > 100 µM | LOX IMVI > 100 µM | EKVX > 100 µM | M19-MEL > 100 µM | DMS-114 > 100 µM | K562 > 100 µM | ACHN > 100 µM

COc1cc(/C=C/C(=O)Oc2ccc(NC(C)=O)cc2)ccc1C(=O)OCc1ccccc1
> 100 µM: HCT-15
inactive: HT-29 > 100 µM | NCI/ADR-RES > 100 µM | MCF7 > 86.5 µM | HCC 2998 > 100 µM | MDA-N > 100 µM | CAKI-1 > 93.3 µM | OVCAR-3 > 100 µM | SK-MEL-2 53.1 µM | SN12C > 92.5 µM | PC-3 > 100 µM | Hs-578T > 100 µM | HOP-62 53.8 µM | LOX IMVI 67.8 µM | EKVX > 100 µM | M19-MEL > 100 µM | DMS-114 > 90.8 µM | K562 > 100 µM | MDA-MB-231 > 100 µM | ACHN > 73.8 µM

COc1ccc(NC(=O)CC(=O)n2nc(C)c(/N=N/c3ccccc3C(=O)O)c2C)cc1
inactive: HT-29 > 100 µM | HCC 2998 > 100 µM | CAKI-1 > 100 µM | OVCAR-3 > 100 µM | SK-MEL-2 > 100 µM | SN12C > 100 µM | HOP-62 > 100 µM | LOX IMVI > 100 µM | EKVX > 100 µM | M19-MEL > 100 µM | DMS-114 > 100 µM | K562 > 100 µM
> 100 µM: HCT-15

CC(=O)O[C@H]1CC[C@@]2(C)C(=CC[C@@H]3C2CC[C@]2(C)C(=O)NC(=O)CC32)C1 (some centres not stated)
68.4 µM: HCT-15
inactive: HT-29 97.5 µM | HCC 2998 > 100 µM | CAKI-1 > 100 µM | SK-MEL-2 > 100 µM | SN12C > 100 µM | HOP-62 > 100 µM | LOX IMVI 40.3 µM | EKVX > 100 µM | M19-MEL > 100 µM | DMS-114 > 79.6 µM | K562 > 56 µM | ACHN > 100 µM

Cc1ccc2c(c1)C1(OC(=O)c3ccccc31)c1ccc(F)cc1O2 (configuration not stated)
inactive: HT-29 39.3 µM | HCC 2998 66.1 µM | CAKI-1 30 µM | OVCAR-3 55.2 µM | SK-MEL-2 43.3 µM | SN12C > 100 µM | HOP-62 > 100 µM | LOX IMVI 39.6 µM | EKVX 59 µM | M19-MEL 57 µM | DMS-114 34.6 µM | K562 35 µM

CC(C)(C)C1=NO[C@H]2[C@@H](NC(=O)c3ccccc3)CC[C@@H]12
> 100 µM: HCT-15
inactive: HT-29 > 100 µM | HCC 2998 > 100 µM | CAKI-1 > 100 µM | OVCAR-3 > 100 µM | SN12C > 100 µM | HOP-62 > 100 µM | LOX IMVI > 100 µM | M19-MEL > 100 µM | DMS-114 > 100 µM | K562 > 100 µM | ACHN > 100 µM

CC(=O)OC(C)(C)C[N+](=O)[O-]
inactive: HT-29 > 100 µM | HCC 2998 > 100 µM | CAKI-1 > 100 µM | OVCAR-3 > 100 µM | SK-MEL-2 > 100 µM | SN12C > 100 µM | HOP-62 > 100 µM | LOX IMVI > 100 µM | EKVX > 100 µM | M19-MEL > 100 µM | DMS-114 > 100 µM | K562 > 100 µM | ACHN > 100 µM
> 100 µM: HCT-15

Cc1ccc(C2=C(c3ccccc3)C(Br)(c3ccc(C)cc3)C(c3ccccc3)=C2c2ccc(C)cc2)cc1
> 100 µM: HCT-15
inactive: HCC 2998 > 100 µM | CAKI-1 > 100 µM | OVCAR-3 > 100 µM | SK-MEL-2 > 100 µM | SN12C > 100 µM | HOP-62 > 100 µM | LOX IMVI > 100 µM | EKVX > 100 µM | M19-MEL > 100 µM | DMS-114 > 100 µM | K562 > 100 µM | ACHN > 100 µM

COC(=O)C1=C2CCC(=O)[C@@]2(C)C(OC(C)=O)C=CC1 (some centres not stated)
29.5 µM: HCT-15
inactive: HT-29 > 100 µM | HCC 2998 > 100 µM | CAKI-1 > 100 µM | OVCAR-3 53.6 µM | SK-MEL-2 71.6 µM | SN12C > 100 µM | HOP-62 > 100 µM | EKVX > 100 µM | M19-MEL > 100 µM | DMS-114 32.7 µM | K562 30.8 µM | ACHN > 100 µM

CCCCc1ccc(-n2c3nc(=O)n(C)c(=O)c-3nc3ccccc32)cc1
6.35 µM: HCT-15
inactive: HT-29 3.11 µM | HCC 2998 4.36 µM | CAKI-1 18.4 µM | OVCAR-3 2.86 µM | SK-MEL-2 10.9 µM | SN12C 7.35 µM | HOP-62 18.2 µM | EKVX 4.05 µM | M19-MEL 1.5 µM | DMS-114 4.7 µM | K562 12.4 µM | ACHN 10.7 µM
